Results published in ChEMBL document CHEMBL4184172, “Isosteric ribavirin analogues: Synthesis and antiviral activities” (Bioorg Med Chem Lett, 2018).
Converted amounts (≈) assume the structure as drawn. The source made the active and inactive calls. The rule behind the calls is not given here.

Tests used:
[1] = Cytotoxicity against pig SPEV cells at 150 ug/ml by microscopic analysis; type: cell-based, Sus scrofa
Vero C1008 = assay: Cytotoxicity against African green monkey Vero E6 cells assessed as alterations in cell morphology at 1000 ug/ml by microscopic analysis; type: cell-based; conditions: chlorocebus sabaeus
Influenza A virus = assay: Antiviral activity against Influenza A virus H5N1 (A/duck/Novosibirsk/56/2005) infected in pig SPEV cells assessed as protection against virus-induced cytopathic effect; type: functional, organism-based, Influenza A virus (A/duck/Novosibirsk/56/2005(H5N1)); conditions: for Activity: Influenza A virus (A/duck/Novosibirsk/56/2005(H5N1))
Human alphaherpesvirus 1 = assay: Antiviral activity against Human herpesvirus 1 L2 infected in African green monkey Vero E6 cells assessed as protection against virus-induced cytopathic effect; type: functional, organism-based; conditions: Human alphaherpesvirus 1, L2, Vero C1008
[2] = Cytotoxicity against African green monkey Vero E6 cells assessed as alterations in cell morphology by microscopic analysis; type: cell-based, Vero C1008; conditions: chlorocebus sabaeus
Hepatitis C virus = assay: Antiviral activity against Hepatitis C virus infected in pig SPEV cells assessed as protection against virus-induced cytopathic effect; type: functional, organism-based, Hepacivirus hominis
[3] = Cytotoxicity against pig SPEV cells by microscopic analysis; type: cell-based, Sus scrofa

Structure (SMILES)	Activity [1]	Activity (Vero C1008)	IC50 (Influenza A virus) [µg/mL]	Activity (Influenza A virus)	IC50 (Human alphaherpesvirus 1) [µg/mL]	CC50 [2] [µg/mL]	IC50 (Hepatitis C virus) [µg/mL]	CC50 [3] [µg/mL]
Cc1nc(-c2ncn([C@@H]3O[C@H](CO)[C@@H](O)[C@H]3O)n2)no1	Non-Toxic	Non-Toxic	50 (≈ 177 µM)					
CC(C)c1nc(-c2ncn([C@@H]3O[C@H](CO)[C@@H](O)[C@H]3O)n2)no1	Non-Toxic	Non-Toxic		inactive				
Cc1nc(-c2ncn([C@H]3C[C@H](O)[C@@H](CO)O3)n2)no1	Non-Toxic	Non-Toxic		inactive				
OC[C@H]1O[C@@H](n2cnc(-c3ncon3)n2)[C@H](O)[C@@H]1O	Non-Toxic	Non-Toxic			250 (≈ 929 µM)			
OC[C@H]1O[C@@H](n2cnc(-c3noc(-c4ccccc4)n3)n2)[C@H](O)[C@@H]1O	Non-Toxic	Non-Toxic				380 (≈ 1100 µM)	8.8 (≈ 25.5 µM)	
NC(=O)c1ncn([C@@H]2O[C@H](CO)[C@@H](O)[C@H]2O)n1 [RIBAVIRIN]			12.5 (≈ 51.2 µM)				12.5 (≈ 51.2 µM)	75 (≈ 307 µM)
